By IC50 is commonly meant the concentration at which inhibition is half-maximal. In general, AC50 refers to the concentration giving half of the maximal activity seen. As a reminder, the EC50 is the midpoint of the concentration-response curve. What is called CC50 is the concentration that lowers cell viability or growth by half.

This is an account of results in ChEMBL document CHEMBL1201862, “PubChem BioAssay data set” (2004).

The nature of assay [1]: Counterscreen for IDE inhibitors: Luminescence-based cell-based high throughput dose response assay to identify compounds that are cytotoxic to HEK cells. [Related pubchem assays: 434962 (Primary screen (IDE inhibitors in singlicate)), 449730 (Counterscreen (Cytotoxicity in triplicate)), 435028 (Confirmation (IDE inhibitors in triplicate)) …. Format: functional. The note with it: HEK293. In general terms: Counterscreens check selectivity or assay interference.

The target of the next assay is T1, Insulin-degrading enzyme (Homo sapiens, UniProt P14735).
T1 sequence (P14735 whole entry): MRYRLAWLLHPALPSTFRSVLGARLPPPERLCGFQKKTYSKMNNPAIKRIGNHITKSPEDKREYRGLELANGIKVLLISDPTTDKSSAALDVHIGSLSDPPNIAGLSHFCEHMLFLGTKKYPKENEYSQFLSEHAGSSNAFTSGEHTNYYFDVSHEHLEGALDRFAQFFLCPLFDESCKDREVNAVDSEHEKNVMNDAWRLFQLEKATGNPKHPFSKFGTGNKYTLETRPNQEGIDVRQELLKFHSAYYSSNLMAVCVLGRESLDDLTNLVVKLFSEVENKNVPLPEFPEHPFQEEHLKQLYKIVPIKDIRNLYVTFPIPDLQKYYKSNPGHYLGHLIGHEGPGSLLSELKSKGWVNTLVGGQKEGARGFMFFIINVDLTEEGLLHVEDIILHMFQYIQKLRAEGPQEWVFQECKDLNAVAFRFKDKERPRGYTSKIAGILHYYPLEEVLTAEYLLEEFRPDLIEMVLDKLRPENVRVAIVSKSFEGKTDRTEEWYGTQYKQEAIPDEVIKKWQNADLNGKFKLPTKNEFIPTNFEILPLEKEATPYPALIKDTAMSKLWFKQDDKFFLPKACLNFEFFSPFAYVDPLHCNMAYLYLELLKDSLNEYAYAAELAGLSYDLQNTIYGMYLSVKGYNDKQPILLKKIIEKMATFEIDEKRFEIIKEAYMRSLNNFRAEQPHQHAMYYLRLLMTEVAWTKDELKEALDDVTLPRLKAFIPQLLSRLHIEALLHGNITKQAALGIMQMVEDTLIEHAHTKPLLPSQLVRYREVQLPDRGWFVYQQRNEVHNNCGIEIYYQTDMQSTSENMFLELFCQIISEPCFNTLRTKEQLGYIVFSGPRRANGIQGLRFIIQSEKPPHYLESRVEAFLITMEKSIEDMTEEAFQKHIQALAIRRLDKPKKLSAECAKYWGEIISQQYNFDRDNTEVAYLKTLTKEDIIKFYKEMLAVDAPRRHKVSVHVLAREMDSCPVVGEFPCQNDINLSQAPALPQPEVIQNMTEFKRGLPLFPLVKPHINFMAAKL
The experiment in a line: Dose Response: Fluorescence polarization-based cell-based high throughput dose response assay for inhibitors of insulin-degrading enzyme (IDE). [Related pubchem assays: 434962 (Primary screen (IDE inhibitors in singlicate)), 449730 (Counterscreen (Cytotoxicity in triplicate)), 435028 (Confirmation (IDE inhibitors in triplicate)), 434984 (Summary …. Format: functional.

Another assay addresses Procathepsin L (Homo sapiens, UniProt P07711).
A further assay deals with T2, Aspartyl aminopeptidase (Plasmodium falciparum 3D7, UniProt Q8I2J3).
T2 sequence (Q8I2J3 whole entry): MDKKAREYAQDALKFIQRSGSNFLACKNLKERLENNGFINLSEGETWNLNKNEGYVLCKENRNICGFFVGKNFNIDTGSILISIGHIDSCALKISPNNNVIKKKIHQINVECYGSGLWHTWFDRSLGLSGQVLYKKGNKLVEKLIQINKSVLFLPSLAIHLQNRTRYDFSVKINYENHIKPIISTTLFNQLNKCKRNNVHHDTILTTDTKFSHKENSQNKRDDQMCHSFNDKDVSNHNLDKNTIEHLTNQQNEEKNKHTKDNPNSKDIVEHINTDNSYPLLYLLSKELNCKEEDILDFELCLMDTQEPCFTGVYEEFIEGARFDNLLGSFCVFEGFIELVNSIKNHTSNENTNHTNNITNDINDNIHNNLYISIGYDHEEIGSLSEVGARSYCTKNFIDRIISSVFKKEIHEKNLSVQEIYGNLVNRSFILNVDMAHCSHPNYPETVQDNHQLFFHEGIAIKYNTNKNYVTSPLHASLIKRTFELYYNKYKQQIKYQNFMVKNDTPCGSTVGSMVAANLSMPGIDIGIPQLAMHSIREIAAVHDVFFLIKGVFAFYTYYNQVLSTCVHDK

The target in another assay is Cytochrome P450 2C9 (Homo sapiens, UniProt P11712).
Assay [2] has as its target Epstein-Barr nuclear antigen 1 (Epstein-Barr virus (strain B95-8) (HHV-4) (Human herpesvirus 4), UniProt P03211). The experiment in a line: EBNA-1 inhibitors, dose response, biochemical, fluorescence polarization, 1536-well (AID 2381).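 Note: fluorescence polarization of a Cy5 DNA probe bound by EBNA-1 protein.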 Details: species or system human gammaherpesvirus 4.
For assay [3], the target named is Lytic switch protein BZLF1 (Epstein-Barr virus (strain B95-8) (HHV-4) (Human herpesvirus 4), UniProt P03206). The experiment in a line: EBV ZTA inhibitors, dose response, counter-screen for EBNA-1 inhibitor project, biochemical, fluorescence polarization, Epstein-Barr virus, 1536-well (AID 2377).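 Note: fluorescence polarization of Cy5-labelled ZRE DNA probe bound by purified Zta.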 Also on record: species or system human gammaherpesvirus 4.
The next assay relates to Streptococcus. The experiment in a line: Group A Streptococcus viability loss, dose response, counter-screen for streptokinase expression inhibitor project, luminescence, BacTiterGlo (AID 1915).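 Note: potency for reduction of bacterial viability or growth.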 Type of assay: functional, organism-based.
A further assay deals with T3, Streptokinase A (Streptococcus pyogenes serotype M1, UniProt P10520).
T3 sequence (P10520 whole entry): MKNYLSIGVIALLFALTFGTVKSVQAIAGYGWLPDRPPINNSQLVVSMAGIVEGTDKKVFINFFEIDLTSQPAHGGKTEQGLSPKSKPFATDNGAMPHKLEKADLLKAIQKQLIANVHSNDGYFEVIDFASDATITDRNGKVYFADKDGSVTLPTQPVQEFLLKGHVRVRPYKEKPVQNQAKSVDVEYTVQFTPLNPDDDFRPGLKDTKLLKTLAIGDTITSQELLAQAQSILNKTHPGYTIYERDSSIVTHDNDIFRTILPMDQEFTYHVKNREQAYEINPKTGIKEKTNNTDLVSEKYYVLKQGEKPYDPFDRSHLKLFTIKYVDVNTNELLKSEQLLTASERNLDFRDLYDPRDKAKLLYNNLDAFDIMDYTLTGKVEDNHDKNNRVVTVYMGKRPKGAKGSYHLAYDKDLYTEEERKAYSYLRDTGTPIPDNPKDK
The experiment in a line: S. pyogenes streptokinase expression inhibitors, potency, dose response, plasminogen activation absorbance, OD405 (AID 1914).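 Note: secreted streptokinase activity via plasminogen activation per viability signal from cell pellet.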 Type of assay: functional, Streptococcus pyogenes M1 GAS.

Assay [4] relates to Streptococcus sp. 'group A'. Put plainly: growth inhibition of control SK(-) GAS strain, dose response, counter-screen for streptokinase expression inhibitor project, luminescence, kanamycin, BacTiterGlo, confirmation (AID 1900). Format: functional, organism-based.
A short description of assay [5]: cells.
Assay [6] in a line: HEp-2 cell cytotoxicity, dose response, cytotoxicity control for RSV inhibitor project, HTS (AID 2410). Type of assay: functional. The note with it: human respiratory syncytial virus.
Assay [7] is described as follows: cells. Type of assay: functional.
The next assay deals with T4, Estrogen receptor (Homo sapiens, UniProt P03372).
T4 sequence (P03372 whole entry): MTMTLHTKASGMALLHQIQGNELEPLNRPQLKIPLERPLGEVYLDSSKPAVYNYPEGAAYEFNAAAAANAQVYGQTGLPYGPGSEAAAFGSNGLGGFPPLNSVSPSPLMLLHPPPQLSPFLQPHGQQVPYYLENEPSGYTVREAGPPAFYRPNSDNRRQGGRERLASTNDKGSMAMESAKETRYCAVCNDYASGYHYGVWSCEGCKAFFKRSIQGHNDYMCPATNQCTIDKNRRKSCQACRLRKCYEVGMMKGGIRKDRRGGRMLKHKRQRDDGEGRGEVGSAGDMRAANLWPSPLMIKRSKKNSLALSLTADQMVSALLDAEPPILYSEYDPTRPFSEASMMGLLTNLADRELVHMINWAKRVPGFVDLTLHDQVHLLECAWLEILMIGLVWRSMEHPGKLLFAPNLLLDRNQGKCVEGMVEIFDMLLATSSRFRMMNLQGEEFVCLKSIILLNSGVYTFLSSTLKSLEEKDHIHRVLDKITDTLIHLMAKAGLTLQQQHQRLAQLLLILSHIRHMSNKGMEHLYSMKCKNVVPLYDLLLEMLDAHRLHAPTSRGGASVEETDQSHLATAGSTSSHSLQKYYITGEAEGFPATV
Put plainly: potentiators of ERα–SRC-1 coactivator binding, dose response, biochemical, TR-FRET, ERα LBD (AID 737). In general terms: Time-resolved FRET reads energy transfer from a long-lived donor to a nearby acceptor.

Assay [8] in a line: half-maximal inhibitory concentration for glucagon-like peptide-1 release, STC-1 cell line, dose-response (AID 1117345). Type of assay: functional, cell-based.
Assay [9] is described as follows: Glucagon-like peptide 1 release potency, NCI-H716 cell line, dose-response, half-maximal inhibitory concentration (AID 1117344). Type of assay: functional, cell-based.
Assay [10] in a line: A Cell Based Secondary Assay To Explore Cytotoxicity of Compounds that Sensitize Mycobacterium Tuberculosis to Beta-Lactam Antibiotics. Format: functional.

Activity calls are given as the source filed them. A value given as a limit tells only on which side of the number the result lay.

Epstein-Barr nuclear antigen 1, sequence (P03211 whole entry): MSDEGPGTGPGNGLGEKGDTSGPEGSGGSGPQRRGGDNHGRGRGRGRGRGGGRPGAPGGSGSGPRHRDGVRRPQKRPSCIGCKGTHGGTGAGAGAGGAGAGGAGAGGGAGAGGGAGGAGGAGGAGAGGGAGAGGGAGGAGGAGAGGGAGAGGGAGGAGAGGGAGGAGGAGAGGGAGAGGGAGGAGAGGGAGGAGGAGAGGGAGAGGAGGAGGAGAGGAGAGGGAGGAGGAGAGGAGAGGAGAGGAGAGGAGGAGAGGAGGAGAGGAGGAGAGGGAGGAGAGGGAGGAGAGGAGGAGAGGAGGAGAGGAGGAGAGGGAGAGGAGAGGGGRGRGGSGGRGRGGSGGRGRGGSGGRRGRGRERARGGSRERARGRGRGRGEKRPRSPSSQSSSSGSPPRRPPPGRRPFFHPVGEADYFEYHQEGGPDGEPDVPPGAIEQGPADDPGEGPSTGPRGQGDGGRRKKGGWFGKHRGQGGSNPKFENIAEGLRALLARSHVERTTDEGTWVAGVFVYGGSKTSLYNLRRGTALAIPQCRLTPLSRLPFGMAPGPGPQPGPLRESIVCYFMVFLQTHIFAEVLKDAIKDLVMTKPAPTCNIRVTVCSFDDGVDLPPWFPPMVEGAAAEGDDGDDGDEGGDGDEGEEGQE
Procathepsin L, sequence (P07711 whole entry): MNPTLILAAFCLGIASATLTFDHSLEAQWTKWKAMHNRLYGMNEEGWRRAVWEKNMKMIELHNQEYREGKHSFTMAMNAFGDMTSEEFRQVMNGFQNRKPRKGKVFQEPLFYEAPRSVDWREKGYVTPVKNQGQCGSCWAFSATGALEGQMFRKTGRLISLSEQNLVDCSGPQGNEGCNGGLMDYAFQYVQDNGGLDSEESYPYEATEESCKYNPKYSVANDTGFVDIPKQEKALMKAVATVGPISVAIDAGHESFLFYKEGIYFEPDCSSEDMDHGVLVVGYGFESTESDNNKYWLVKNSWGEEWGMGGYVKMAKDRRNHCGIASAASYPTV
Lytic switch protein BZLF1, sequence (P03206 whole entry): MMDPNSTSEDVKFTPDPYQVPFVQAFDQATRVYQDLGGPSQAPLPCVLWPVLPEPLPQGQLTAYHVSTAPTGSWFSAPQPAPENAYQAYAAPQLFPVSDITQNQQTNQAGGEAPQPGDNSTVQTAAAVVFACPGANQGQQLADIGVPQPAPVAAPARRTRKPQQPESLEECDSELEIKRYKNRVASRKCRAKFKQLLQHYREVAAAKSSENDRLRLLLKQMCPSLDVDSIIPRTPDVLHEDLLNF
Cytochrome P450 2C9, sequence (P11712 whole entry): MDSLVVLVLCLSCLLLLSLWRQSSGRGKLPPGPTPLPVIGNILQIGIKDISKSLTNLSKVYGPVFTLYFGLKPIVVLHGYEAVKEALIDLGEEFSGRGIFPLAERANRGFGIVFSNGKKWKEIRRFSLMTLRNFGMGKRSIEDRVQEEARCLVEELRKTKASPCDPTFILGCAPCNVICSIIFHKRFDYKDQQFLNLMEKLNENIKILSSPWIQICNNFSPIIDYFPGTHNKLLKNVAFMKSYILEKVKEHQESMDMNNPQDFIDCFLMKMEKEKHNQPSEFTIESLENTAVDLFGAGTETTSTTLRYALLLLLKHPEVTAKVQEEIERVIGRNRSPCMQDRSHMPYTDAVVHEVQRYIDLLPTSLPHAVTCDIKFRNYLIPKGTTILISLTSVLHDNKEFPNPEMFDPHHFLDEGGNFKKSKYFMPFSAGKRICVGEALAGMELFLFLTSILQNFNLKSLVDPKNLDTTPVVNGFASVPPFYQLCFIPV

As to `Cc1cccc(N2CCN(C(=O)c3cccc(N4C(=O)C5C6C=CC(C6)C5C4=O)c3)CC2)c1C` (configuration not stated), the results for the IC50 (in assay [1]; at Insulin-degrading enzyme) were 17.4 µM (not active) and 6.73 µM (active), respectively.
Consider `COc1ccc(NC(=O)NNC(=O)CCc2ccc(O)c(O)c2)cc1OC`, for which the IC50 is > 59.6 µM (not active) on Procathepsin L and 2.51 µM (active) at Aspartyl aminopeptidase.
Take `Cn1cc(/C=C2/SC(=O)N(CC(=O)Nc3ccc4c(c3)OCO4)C2=O)c2ccccc21`: at Cytochrome P450 2C9, the AC50 is 7.08 µM (inconclusive). For the same molecule, the IC50 in assay [2] is 5.72 µM (active); in assay [3], > 111 µM (not active).
As for `Cc1ccc(/C=C/C(=O)NC(=S)Nc2ccc(S(=O)(=O)Nc3cc(C)on3)cc2)cc1`, the figures for the EC50 (with Streptococcus; on Streptokinase A; in assay [4]) were 62.4 µM (active), 27.1 µM (inconclusive) and 9.56 µM (active), respectively. The IC50 in assay [1] was > 55.7 µM (not active); on Insulin-degrading enzyme, 9.71 µM (active).
With `CCCCC1CCC(C(=O)Nc2ccc(S(=O)(=O)Nc3nccs3)cc2)CC1` (configuration not stated), the IC50 in “cells [5]” was 36.5 µM (active); in “cells [7]” it was 14.5 µM (active). Also, in assay [6], the CC50 was 34.3 µM (active).
Consider `C/C=C(/C(=C/C)c1ccc(O)cc1)c1ccc(O)cc1` [DIENESTROL], for which, at Estrogen receptor, the EC50 is 13.2 µM (active). For the same molecule, the IC50 in assay [8] and in [9] was > 40 µM (inactive) each time.
Regarding `Cc1ccc(C(=O)c2oc3ccccc3c2NC(=O)c2cc(-c3cc(C)ccc3O)[nH]n2)cc1`, the CC50 in assay [10] is 7.97 µM (active).
As to `COc1ccc(C(C(=O)NC2CCCC2)N(C(=O)c2snc(C(N)=O)c2N)c2cc(C)ccc2OC)cc1OC` (configuration not stated), the IC50 in “cells [5]” was 6.11 µM (active).
In the case of `CCOc1ccccc1N1C(=O)NC(=O)C(CCc2ccncc2)(CCc2ccncc2)C1=O`, on Estrogen receptor, the EC50 was 12.7 µM (active).
Consider `COc1ccc(NC(=O)CSc2nc(N)c(C(=O)Nc3ccc(N(C)C)cc3)s2)cc1`, for which the cytotoxic concentration (CC50) in assay [10] is > 40 µM (active).
